Laboratory results taken from US9833497B2, “Human originated EGF domain proteins and use of the same” (CHENGDU SOURCEBIO LIMITED-LIABILITY COMPANY, priority 2013, dated 2017).

Legend:
Assay type in all cases: cell-based
Klebsiella pneumonia = assay: MIC against Gram-negative bacteria: Klebsiella pneumonia; details: 5×10^5 CFU/mL
Summary of the method: (§1)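 MIC, the lowest recombinant protein concentration giving no bacterial growth, found by two-fold serial dilution of human EGF-domain proteins in triplicate. Inoculum 5×10^5 CFU/mL in LB from cultures at McFarland 0.5; plates incubated at 37° C, 175 rpm shaking.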

Citrobacter diversus = assay: MIC against Gram-negative bacteria: Citrobacter diversus; details: 5×10^5 CFU/mL
Summary of the method: as §1

E. coli DH5α = assay: Antibacterial activity: MIC and growth curve against E. coli DH5α in 96-well plate; details: minimal inhibitory concentration against E. coli DH5α; 96-well plate, 5×10^5 CFU/mL, 37° C., judged after 8 h
Summary of the method: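 MIC taken as lowest protein level with no bacterial growth, tracked by A600 every 30 min during 37 °C, 175 rpm culture. Two-fold protein series 50-12.5 μg/mL final, triplicate wells, against 5×10^5 CFU/mL of LB-washed mid-log cells.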

Proteus mirabilis = assay: MIC against Gram-negative bacteria: Proteus mirabilis; details: 5×10^5 CFU/mL
Summary of the method: as §1

Enterobacter cloacae = assay: MIC against Gram-negative bacteria: Enterobacter cloacae; details: 5×10^5 CFU/mL
Summary of the method: as §1

Proteus vulgaris = assay: MIC against Gram-negative bacteria: Proteus vulgaris; details: 5×10^5 CFU/mL
Summary of the method: as §1

Moraxella catarrhalis = assay: MIC against Gram-negative bacteria: Moraxella catarrhalis; details: 5×10^5 CFU/mL
Summary of the method: as §1

Serratia marcescens = assay: MIC against Gram-negative bacteria: Serratia marcescens; details: 5×10^5 CFU/mL
Summary of the method: as §1

Pseudomonas aeruginosa = assay: MIC against Gram-negative bacteria: Pseudomonas aeruginosa; details: 5×10^5 CFU/mL
Summary of the method: as §1

E. coli BL21 = assay: MIC against Gram-negative bacteria: E. coli BL21; details: 5×10^5 CFU/mL
Summary of the method: as §1

Aeromonas hydrophila = assay: MIC against Gram-negative bacteria: Aeromonas hydrophila; details: 5×10^5 CFU/mL
Summary of the method: as §1

[1] = 10 h cultivation at 37° C., two-fold serial dilution

Substance: PRT1461 (CNCNTSGTVDGDITCHQNSGQCKCKANVIGLRCDHCNFGFKFLRSFNDVGCEP; listed as Homo sapiens)
- MIC against K. pneumonia (Klebsiella pneumonia; Klebsiella pneumonia, 10 h cultivation at 37° C.): 12.5 µg/mL
- MIC against C. diversus (Citrobacter diversus; Citrobacter diversus, 10 h cultivation at 37° C.): 25 µg/mL
- MIC (E. coli DH5α): 25 µg/mL
- MIC against P. mirabilis (Proteus mirabilis; Proteus mirabilis, 10 h cultivation at 37° C.): 25 µg/mL
- MIC against E. cloacae (Enterobacter cloacae; Enterobacter cloacae, 10 h cultivation at 37° C.): 25 µg/mL
- MIC against P. vulgaris (Proteus vulgaris; Proteus vulgaris, 10 h cultivation at 37° C.): 12.5 µg/mL
- MIC against M. catarrhalis (Moraxella catarrhalis; Moraxella catarrhalis, 10 h cultivation at 37° C.): 12.5 µg/mL
- MIC against S. marcescens (Serratia marcescens; Serratia marcescens, 10 h cultivation at 37° C.): 25 µg/mL
- MIC against P. aeruginosa (Pseudomonas aeruginosa; Pseudomonas aeruginosa, 10 h cultivation at 37° C.): 50 µg/mL
- MIC against E. coli BL21 (E. coli BL21; E. coli BL21, 10 h cultivation at 37° C.): 12.5 µg/mL
- MIC against A. hydrophila (Aeromonas hydrophila; Aeromonas hydrophila, 10 h cultivation at 37° C.): 12.5 µg/mL

Substance: PRT1496 (EISKCPQPCRNGGKCIGKSKCKCSKGYQGDLCS; listed as Homo sapiens)
- MIC (μg/mL) K. pneumonia (Klebsiella pneumonia; Klebsiella pneumonia, 96-well plate, 37° C., 10 h): 12.5 µg/mL
- MIC (μg/mL) C. diversus (Citrobacter diversus; Citrobacter diversus, 96-well plate, 37° C., 10 h): 50 µg/mL
- MIC (E. coli DH5α): 50 µg/mL
- MIC (μg/mL) P. mirabilis (Proteus mirabilis; Proteus mirabilis, 96-well plate, 37° C., 10 h): 50 µg/mL
- MIC (μg/mL) E. cloacae (Enterobacter cloacae; Enterobacter cloacae, 96-well plate, 37° C., 10 h): 100 µg/mL
- MIC (μg/mL) P. vulgaris (Proteus vulgaris; Proteus vulgaris, 96-well plate, 37° C., 10 h): 100 µg/mL
- MIC (μg/mL) M. catarrhalis (Moraxella catarrhalis; Moraxella catarrhalis, 96-well plate, 37° C., 10 h): 12.5 µg/mL
- MIC (μg/mL) S. marcescens (Serratia marcescens; Serratia marcescens, 96-well plate, 37° C., 10 h): 25 µg/mL
- MIC (μg/mL) P. aeruginosa (Pseudomonas aeruginosa; Pseudomonas aeruginosa, 96-well plate, 37° C., 10 h): 12.5 µg/mL
- MIC (μg/mL) E. coli BL21 (E. coli BL21; E. coli BL21, 96-well plate, 37° C., 10 h): 25 µg/mL
- MIC (μg/mL) A. hydrophila (Aeromonas hydrophila; Aeromonas hydrophila, 96-well plate, 37° C., 10 h): 50 µg/mL

Substance: PRT540 (CVCHGHADACDAKDPTDPFRLQCTCQHNTCGGTCDRCCPGFNQQPWKPATANSANECQS; listed as Homo sapiens)
- MIC against K. pneumonia (Klebsiella pneumonia; 96-well plate, 37° C., 10 h): 12.5 µg/mL
- MIC against C. diversus (Citrobacter diversus; 96-well plate, 37° C., 10 h): 25 µg/mL
- MIC (E. coli DH5α): 12.5 µg/mL
- MIC against P. mirabilis (Proteus mirabilis; 96-well plate, 37° C., 10 h): 25 µg/mL
- MIC against E. cloacae (Enterobacter cloacae; 96-well plate, 37° C., 10 h): 50 µg/mL
- MIC against P. vulgaris (Proteus vulgaris; 96-well plate, 37° C., 10 h): 12.5 µg/mL
- MIC against M. catarrhalis (Moraxella catarrhalis; 96-well plate, 37° C., 10 h): 50 µg/mL
- MIC against S. marcescens (Serratia marcescens; 96-well plate, 37° C., 10 h): 50 µg/mL
- MIC against P. aeruginosa (Pseudomonas aeruginosa; 96-well plate, 37° C., 10 h): 12.5 µg/mL
- MIC against E. coli BL21 (E. coli BL21; 96-well plate, 37° C., 10 h): 50 µg/mL
- MIC against A. hydrophila (Aeromonas hydrophila; 96-well plate, 37° C., 10 h): 12.5 µg/mL

Substance: PRT1192 (DIDECASNPCAAGGTCVDQVDGFECICPEQWVGATCQ; listed as Homo sapiens)
- MIC K. pneumonia (Klebsiella pneumonia; [1]): 50 µg/mL
- MIC C. diversus (Citrobacter diversus; [1]): 50 µg/mL
- MIC (E. coli DH5α): 25 µg/mL
- MIC P. mirabilis (Proteus mirabilis; [1]): 12.5 µg/mL
- MIC E. cloacae (Enterobacter cloacae; [1]): 25 µg/mL
- MIC P. vulgaris (Proteus vulgaris; [1]): 50 µg/mL
- MIC M. catarrhalis (Moraxella catarrhalis; [1]): 25 µg/mL
- MIC S. marcescens (Serratia marcescens; [1]): 25 µg/mL
- MIC P. aeruginosa (Pseudomonas aeruginosa; [1]): 25 µg/mL
- MIC E. coli BL21 (E. coli BL21; [1]): 12.5 µg/mL
- MIC A. hydrophila (Aeromonas hydrophila; [1]): 12.5 µg/mL

Substance: PRT457 (DVDECLQGRCEQVCVNSPGSYTCHCDGRGGLKLSQDMDTCE; listed as Homo sapiens)
- MIC against K. pneumonia (Klebsiella pneumonia; 96-well plate, 37° C., 10 h): 50 µg/mL
- MIC against C. diversus (Citrobacter diversus; 96-well plate, 37° C., 10 h): 25 µg/mL
- MIC (E. coli DH5α): 50 µg/mL
- MIC against P. mirabilis (Proteus mirabilis; 96-well plate, 37° C., 10 h): 12.5 µg/mL
- MIC against E. cloacae (Enterobacter cloacae; 96-well plate, 37° C., 10 h): 25 µg/mL
- MIC against P. vulgaris (Proteus vulgaris; 96-well plate, 37° C., 10 h): 50 µg/mL
- MIC against M. catarrhalis (Moraxella catarrhalis; 96-well plate, 37° C., 10 h): 50 µg/mL
- MIC against S. marcescens (Serratia marcescens; 96-well plate, 37° C., 10 h): 12.5 µg/mL
- MIC against P. aeruginosa (Pseudomonas aeruginosa; 96-well plate, 37° C., 10 h): 12.5 µg/mL
- MIC against E. coli BL21 (E. coli BL21; 96-well plate, 37° C., 10 h): 25 µg/mL
- MIC against A. hydrophila (Aeromonas hydrophila; 96-well plate, 37° C., 10 h): 12.5 µg/mL

Substance: PRT632 (CKCHPLGSQEDQCHPKTGQCTCRPGVTGQACDRCQLGFFGFSIKGCRA; listed as Homo sapiens)
- MIC K. pneumonia (Klebsiella pneumonia; 96-well plate, 37° C., 10 h): 25 µg/mL
- MIC C. diversus (Citrobacter diversus; 96-well plate, 37° C., 10 h): 50 µg/mL
- MIC (E. coli DH5α): 12.5 µg/mL
- MIC P. mirabilis (Proteus mirabilis; 96-well plate, 37° C., 10 h): 12.5 µg/mL
- MIC E. cloacae (Enterobacter cloacae; 96-well plate, 37° C., 10 h): 12.5 µg/mL
- MIC P. vulgaris (Proteus vulgaris; 96-well plate, 37° C., 10 h): 25 µg/mL
- MIC M. catarrhalis (Moraxella catarrhalis; 96-well plate, 37° C., 10 h): 25 µg/mL
- MIC S. marcescens (Serratia marcescens; 96-well plate, 37° C., 10 h): 50 µg/mL
- MIC P. aeruginosa (Pseudomonas aeruginosa; 96-well plate, 37° C., 10 h): 12.5 µg/mL
- MIC E. coli BL21 (E. coli BL21; 96-well plate, 37° C., 10 h): 25 µg/mL
- MIC A. hydrophila (Aeromonas hydrophila; 96-well plate, 37° C., 10 h): 25 µg/mL
